Measurements as given in patent publication US8349841B2, “Vinyl-aryl derivatives for inflammation and immune-related uses” (Synta Pharmaceuticals Corp., priority 2007, dated 2013).
pIC50: −log10 of the molar value. Counter-ions that a name gives are not always drawn.

These molecules were tested on IL-2 production (assay: Inhibition of IL-2 production in PHA-activated Jurkat cells (ELISA)). Conditions: Homo sapiens, PHA 2.5 μg/mL, 20 hours at 37° C., IL-2 ELISA.
Format: cell-based
Method: Jurkat cells were placed in a 96 well plate (0.5 million cells per well in 1% FBS medium) then a test compound of this invention was added at different concentrations. After 10 minutes, the cells were activated with PHA (final concentration 2.5 μg/mL) and incubated for 20 hours at 37° C. under CO2. The final volume was 200 μL. Following incubation, the cells were centrifuged and the supernatants collected and stored at −70° C. prior to assaying for IL-2 production. A commercial ELISA kit (IL-2 Eli-pair, Diaclone Research, Besancon, France) was used to detect production of IL-2, from which dose response curves were obtained. The IC50 value was calculated as the concentration at which 50% of maximum IL-2 production after stimulation was inhibited versus a non-stimulation control.

pIC50 | SMILES
7.18 | CCOC(=O)N1CCC(Cl)=C(c2ccc(NC(=O)c3c(F)cccc3F)cc2)C1 [Compound 6, ethyl 4-chloro-3-(4-(2,6-difluorobenzamido)phenyl)-5,6-dihydropyridine-1(2H)-carboxylate]
7.42 | CC1=C(c2cnc(NC(=O)c3c(F)cccc3F)cn2)CN(c2ncccn2)CC1 [Compound 2, 2,6-difluoro-N-(5-(4-methyl-1-(pyrimidin-2-yl)-1,2,5,6-tetrahydropyridin-3-yl)pyrazin-2-yl)benzamide hydrochloride]
6.03 | CC1=C(c2ccc(NC(=O)c3c(F)cccc3F)nc2)CN(C(=O)c2ccccn2)CC1 [Compound 4, 2,6-difluoro-N-(5-(4-methyl-1-picolinoyl-1,2,5,6-tetrahydropyridin-3-yl)pyridin-2-yl)benzamide hydrochloride]
7.52 | CCOC(=O)N1CCC(C)=C(c2ccc(NC(=O)c3c(F)cccc3F)nc2)C1 [Compound 1, ethyl 3-(6-(2,6-difluorobenzamido)pyridin-3-yl)-4-methyl-5,6-dihydropyridine-1(2H)-carboxylate]

SMILES | pIC50
C=CCOC(=O)N1CCC(c2ccc(NC(=O)c3c(F)cccc3F)cc2)=C(COC(C)=O)C1 [Compound 3, allyl 3-(acetoxymethyl)-4-(4-(2,6-difluorobenzamido)phenyl)-5,6-dihydropyridine-1(2H)-carboxylate] | < 6.00
CCOC(=O)N1CCC(c2ccc(NC(=O)c3c(F)cccc3F)cc2)=C(COC(C)=O)C1 [Compound 5, ethyl 3-(acetoxymethyl)-4-(4-(2,6-difluorobenzamido)phenyl)-5,6-dihydropyridine-1(2H)-carboxylate] | < 6.00
